Source: publication PMC9230201, “Sustained Consumption of a Decaffeinated Green Coffee Nutraceutical Has Limited Effects on Phenolic Metabolism and Bioavailability in Overweight/Obese Subjects” (Nutrients, 2022)
“And” between values parts separate entries of the source, which are not always exact repeats. Equal values may be shown once.

Legend:
[1] = Fecal excretion of phenolic metabolites after intake of the GCPE nutraceutical; details: feces
Method: (§1) Participants attended the Human Nutrition Unit (HNU) at the Institute of Food Science, Technology and Nutrition (ICTAN-CSIC) on two consecutive days at the beginning of the intervention (week 0) and also on two consecutive days at the end of the study, after consuming daily two doses of the GCPE nutraceutical, providing 600 mg/d phenols, during two months (week 8). […] A licensed health care professional placed an intravenous catheter in the subjects′ nondominant arm and collected a fasting blood sample (baseline, 0 h). Then, subjects drank the soluble GCPE nutraceutical dissolved in 200 mL of water. […] On the sampling days, volunteers remained at the HNU, where a (poly)phenol-free diet was provided. Half an hour after consuming the nutraceutical, volunteers ate a breakfast consisting of ham, cheese, white bread, and a yogurt. Lunch (paella, bread, and yogurt) and an afternoon snack (muffin and yogurt) were eaten 5 and 9 h, respectively, after consuming the nutraceutical. Water and isotonic beverages were freely available. […] The same protocol was followed during visits at the end of the 8-week intervention. On each occasion, two days before each visit to the HNU, subjects consumed a low (poly)phenol diet free of foods containing hydroxycinnamates such as coffee, herbal teas, red wine, artichokes, whole grain cereals, vegetables, fruits and fruit juices, and dried fruits. Only banana, watermelon, cantaloupes, and potatoes were allowed.
(§2) Blood samples were immediately centrifuged (10 min, 3000 rpm, 4 °C) to obtain plasma. […] All biological samples were stored at −80 °C until analysis.
(§3) To extract plasma metabolites, 10 µL of 50% (v/v) aqueous formic acid, and 900 µL cold acetonitrile containing 50 µL of 10% (w/v) ascorbic acid were added to 400 µL defrosted plasma. Samples were vortexed and centrifuged (14,000 rpm, 10 min, 4 °C), repeating the extraction and combining the two supernatants, which were reduced to dryness under nitrogen [13]. Dried samples were resuspended in 150 µL of 0.1% aqueous formic acid (containing 10% acetonitrile acidified with 0.1% formic acid), centrifuged (15 min, 14,000 rpm, 4 °C), and the supernatant collected. Urine samples were diluted 1:1 with Milli-Q water and centrifuged (14,000 rpm, 20 min, 4 °C) prior to analysis. Phosphate-buffered saline (3 mL) was added to a representative 300 mg sample of thawed feces, homogenized in an ultrasound bath during 10 min, centrifuged (14,000 rpm, 20 min, 4 °C), and the supernatants collected.
(§4) Mobile phase A was 0.1% formic acid in Milli-Q water, and mobile phase B was acetonitrile containing 0.1% formic acid at a 0.3 mL/min flow rate. […] Metabolites were identified based on their retention time using authentic standards when possible. […] Urine concentration of excreted metabolites was normalized to the total volume excreted in each studied interval.
(§5) Plasma (30 µL), urine (5 µL) and fecal extracts (5 µL) were filtered through 0.45 µm
(§6) cellulose-acetate membrane filters and injected into an Agilent 1200 series LC system
(§7) ESI-Jet Stream Technology (Agilent Technologies). A reverse-phase Ascentis Express
(§8) C18 (15 cm x 3 mm, 2.7 µm) column (Sigma-Aldrich Quimica, Madrid), preceded by a
(§9) phase A was 0.1% formic acid in Milli-Q water, and mobile phase B was acetonitrile
(§10) containing 0.1% formic acid at a 0.3 mL/min flow rate. The gradient started with 10% B
(§11) at 0 min, 30% B at 10 min, 40% B at 15 min, reaching 50% B at 20 min. The starting
(§12) gradient was then re-established in 2 min and maintained for 8 min to re-equilibrate the

[2] = Urinary excretion of phenolic metabolites after intake of the GCPE nutraceutical; details: for Cumulative urinary excretion, Total 0–24 h: urine, mean ± SEM, n = 9
Method: as §1, §2, §3, §4, §5, §6, §7, §8, §9, §10, §11, §12

Row | Compound | Amount of fecal metabolite excreted at 24 h ([1]; week 8) | Cumulative urinary excretion, Total 0–24 h ([2]; week 0) | Cumulative urinary excretion, Total 0–24 h ([2]; week 8) | Amount excreted in urine, 0- 3 h ([2]; week 0, interval 0–3 h) | Amount excreted in urine, 3-6 h ([2]; week 0, interval 3–6 h) | Amount excreted in urine, 6-9 h ([2]; week 0, interval 6–9 h) | Amount excreted in urine, 9-11 h ([2]; week 0, interval 9–11 h) | Amount excreted in urine, 11-24 h ([2]; week 0, interval 11–24 h) | Amount excreted in urine, 0- 3 h ([2]; week 8, interval 0–3 h) | Amount excreted in urine, 3-6 h ([2]; week 8, interval 3–6 h) | Amount excreted in urine, 6-9 h ([2]; week 8, interval 6–9 h) | Amount excreted in urine, 9-11 h ([2]; week 8, interval 9–11 h) | Amount excreted in urine, 11-24 h ([2]; week 8, interval 11–24 h) | Amount of fecal metabolite excreted at 0 h ([1]; week 8) | Amount of fecal metabolite excreted at 24 h ([1]; week 0) | Amount of fecal metabolite excreted at 0 h ([1]; week 0, mean ± SEM, n = 9)
1 | O=C(O)Cc1ccc(O)c(O)c1 [3′,4′-Dihydroxyphenylacetic acid] | 0.010 ± 0.008 µmol/g | 1.2 ± 0.2 µmol | 1.3 ± 0.2 µmol | 0.12 ± 0.03 µmol | 0.08 ± 0.03 µmol | 0.11 ± 0.05 µmol | 0.06 ± 0.02 µmol | 0.38 ± 0.04 µmol | 0.15 ± 0.03 µmol | 0.05 ± 0.02 µmol | 0.08 ± 0.02 µmol | 0.09 ± 0.03 µmol | 0.31 ± 0.03 µmol | – | – | –
2 | O=C(O)/C=C/c1ccc(O)cc1 [CoA, 4′-Hydroxycinnamic acid] | 0.003 ± 0.001 µmol/g | – | – | – | – | – | – | – | – | – | – | – | – | 0.006 ± 0.004 µmol/g | 0.002 ± 0.002 µmol/g | –
3 | O=C(O)CCc1cccc(O)c1 [DHiCoA, 3-(3′-Hydroxyphenyl)propanoic acid] | 0.25 ± 0.07 µmol/g | – | – | – | – | – | – | – | – | – | – | – | – | 0.4 µmol/g and 0.4 ± 0.1 µmol/g | 0.24 ± 0.07 µmol/g | 0.21 µmol/g and 0.21 ± 0.07 µmol/g
4 | COc1cc(/C=C/C(=O)O[C@@H]2C[C@@](O)(C(=O)O)C[C@@H](O)[C@@H]2O)ccc1O [3-Feruloylquinic acid] | 0.003 ± 0.002 µmol/g | 0.29 ± 0.07 µmol | 0.34 ± 0.07 µmol | 0.15 ± 0.04 µmol | 0.1 ± 0.04 µmol | 0.021 ± 0.006 µmol | 0.007 ± 0.004 µmol | 0.01 ± 0.005 µmol | 0.19 ± 0.04 µmol | 0.08 ± 0.02 µmol | 0.05 ± 0.01 µmol | 0.014 ± 0.008 µmol | 0.015 ± 0.007 µmol | 0.0010 ± 0.0007 µmol/g | 0.003 ± 0.003 µmol/g | 0.003 ± 0.003 µmol/g
5 | O=C(CCc1ccc(O)c(O)c1)OC1CC(O)(C(=O)O)CC(O)C1O (stereo not shown) [5-Dihydrocaffeoylquinic acid] | 0.08 ± 0.02 µmol/g | 0.03 ± 0.02 µmol | 0.03 ± 0.01 µmol | 0.012 ± 0.006 µmol | 0.005 ± 0.003 µmol | 0.003 ± 0.002 µmol | 0.003 ± 0.002 µmol | 0.01 ± 0.004 µmol | 0.004 ± 0.003 µmol | 0.002 ± 0.001 µmol | 0.002 ± 0.002 µmol | 0.002 ± 0.002 µmol | 0.015 ± 0.008 µmol | 0.06 ± 0.02 µmol/g | 0.05 ± 0.01 µmol/g | 0.04 ± 0.01 µmol/g
6 | O=C(O)/C=C/c1ccc(O)c(O)c1 [CA, 3′,4′-Dihydroxycinnamic acid] | 0.003 ± 0.003 µmol/g | 0.42 ± 0.06 µmol | 0.45 ± 0.09 µmol | 0.13 ± 0.03 µmol | 0.08 ± 0.02 µmol | 0.08 ± 0.03 µmol | 0.023 ± 0.008 µmol | 0.12 ± 0.02 µmol | 0.12 ± 0.03 µmol | 0.06 ± 0.01 µmol | 0.11 ± 0.02 µmol | 0.06 ± 0.03 µmol | 0.11 ± 0.03 µmol | 0.003 ± 0.002 µmol/g | 0.0003 ± 0.0003 µmol/g | –
